Among the test systems are TK-10; SK-MEL-28; OVCAR-5; DU-145; Hs-578T; EKVX; NCI-H23; UACC-257; UACC-62; SK-OV-3; SF-295; K562; HCT-116; PC-3; NCI/ADR-RES; T47D; COLO 205; SK-MEL-2; U-251; Malme-3M.
What all share (assay): growth of human tumour cells (NCI), 48 h

Each structure is given as a SMILES string.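 All cell lines were grown in 96-well plates and treated with compound for 48 hours. Here, GI50 denotes the concentration required for 50% inhibition of growth.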 Calls of active or inactive are those of the source. No stated cut-off is given here; in the data, active = GI50 up to about 1.1 µM and inactive = higher. Bounds are passed on as bounds.

In the case of `N#C/C(=C\N1CCNC1=S)C(=O)c1ccc2ccccc2c1`, the GI50 in the experiment on TK-10, in the experiment on SK-MEL-28, in the experiment with OVCAR-5, with DU-145, in the experiment on Hs-578T and in the experiment on EKVX was > 100 µM (inactive) each time. Further, the GI50 in the experiment on NCI-H23, with UACC-257, with UACC-62, in the experiment on SK-OV-3, in the experiment on SF-295 and in the experiment with K562 was > 100 µM (inactive) each time. Also, the GI50 in the experiment on HCT-116 is > 100 µM (inactive); in the experiment on PC-3, 97.1 µM (inactive); in the experiment on NCI/ADR-RES, > 100 µM (inactive); in the experiment with T47D, 67 µM (inactive); in the experiment on COLO 205, > 100 µM (inactive); in the experiment on SK-MEL-2, > 100 µM (inactive). For the same compound, the GI50 in the experiment on U-251 is > 100 µM (inactive).

On to `COc1cccc(/N=N/C(=NNC(=O)c2ccc(C)cc2)c2ccc(N(C)C)cc2)c1`, for which the GI50 in the experiment with TK-10, in the experiment on SK-MEL-28, in the experiment on OVCAR-5, in the experiment with DU-145, with Hs-578T and in the experiment on EKVX was > 100 µM (inactive) each time. In addition, the GI50 with NCI-H23 was > 100 µM (inactive); with UACC-257 it was > 100 µM (inactive); in the experiment with SK-OV-3 it was > 100 µM (inactive); in the experiment on SF-295 it was > 100 µM (inactive); with K562, 44 µM (inactive); in the experiment with HCT-116, > 100 µM (inactive). For the same compound, the GI50 is > 100 µM (inactive) in the experiment on PC-3; > 100 µM (inactive) in the experiment with NCI/ADR-RES; 0.832 µM (active) in the experiment on T47D; 44.3 µM (inactive) in the experiment on COLO 205; > 100 µM (inactive) with SK-MEL-2; > 100 µM (inactive) in the experiment on U-251.

As for `COC(=O)C1CCC(=O)N1C(c1cc(OC)c(OC)c(OC)c1)c1cccc2ccccc12` (stereo not drawn), the GI50 with TK-10 is > 100 µM (inactive); in the experiment with SK-MEL-28, > 100 µM (inactive); with OVCAR-5 it was > 100 µM (inactive); in the experiment with DU-145 it was > 100 µM (inactive); in the experiment with Hs-578T it was 6.44 µM (inactive); in the experiment with EKVX, > 100 µM (inactive). Moreover, the GI50 with UACC-257 was > 100 µM (inactive); in the experiment on UACC-62 it was 45 µM (inactive); with SK-OV-3, 25.4 µM (inactive); in the experiment with SF-295, > 100 µM (inactive); with K562, 75.9 µM (inactive); in the experiment with HCT-116 it was > 100 µM (inactive). Besides, the GI50 in the experiment with PC-3 was > 100 µM (inactive); with NCI/ADR-RES it was 39 µM (inactive); in the experiment with T47D it was > 100 µM (inactive); with SK-MEL-2, > 100 µM (inactive); in the experiment with U-251 it was > 100 µM (inactive).

As to `CSc1ccc2c(c1)C(N1CCN(C)CC1)Cc1ccccc1S2` (stereo not drawn), the GI50 in the experiment on TK-10 is 3.35 µM (inactive); in the experiment with OVCAR-5 it was 2.67 µM (inactive); in the experiment with DU-145 it was 10.7 µM (inactive); with Hs-578T it was 4.4 µM (inactive); with EKVX it was 3.34 µM (inactive); in the experiment with NCI-H23, 13.9 µM (inactive). Besides, the GI50 is 2.07 µM (inactive) with UACC-257; 2.05 µM (inactive) with UACC-62; 13.9 µM (inactive) in the experiment with SK-OV-3; 3.83 µM (inactive) in the experiment with SF-295; 1.94 µM (inactive) in the experiment on K562; 3.84 µM (inactive) in the experiment with HCT-116. Besides, the GI50 in the experiment with Malme-3M is 1.71 µM (inactive); in the experiment with PC-3, 4.3 µM (inactive); in the experiment with NCI/ADR-RES, 5.56 µM (inactive); with T47D, 8.04 µM (inactive); in the experiment with COLO 205 it was 1.98 µM (inactive); in the experiment on SK-MEL-2, 2.72 µM (inactive). Also, the GI50 with U-251 was 4.43 µM (inactive).

In the case of `COc1ccc(/N=C2\C(=N/c3ccc(OC)cc3)N(c3ccccc3[N+](=O)[O-])C(=S)N2c2ccc(OC)cc2)cc1`, the GI50 in the experiment on TK-10 is > 100 µM (inactive); in the experiment with SK-MEL-28, > 100 µM (inactive); in the experiment with OVCAR-5, > 100 µM (inactive); in the experiment with DU-145, > 100 µM (inactive); with Hs-578T it was > 100 µM (inactive); in the experiment on EKVX, 99.3 µM (inactive). Besides, the GI50 is > 100 µM (inactive) in the experiment on NCI-H23; 78.9 µM (inactive) in the experiment with UACC-62; > 100 µM (inactive) in the experiment on SK-OV-3; 51.8 µM (inactive) in the experiment with SF-295; 35.5 µM (inactive) in the experiment on K562; 35.6 µM (inactive) in the experiment on HCT-116. Besides, the GI50 in the experiment on PC-3 was 91.6 µM (inactive); in the experiment on NCI/ADR-RES, > 100 µM (inactive); with T47D, 26 µM (inactive); with COLO 205, 17.1 µM (inactive); in the experiment on SK-MEL-2, > 100 µM (inactive); with U-251, > 100 µM (inactive).

For `O=P1(O)c2ccccc2CSCc2ccccc21`, the GI50 with TK-10, in the experiment on SK-MEL-28, with OVCAR-5, with DU-145, in the experiment on Hs-578T and in the experiment on EKVX was > 100 µM (inactive) throughout. The GI50 with NCI-H23, with UACC-257, in the experiment on UACC-62, with SK-OV-3, in the experiment on SF-295 and in the experiment on K562 was > 100 µM (inactive) in each case. In addition, the GI50 in the experiment with HCT-116, in the experiment on PC-3, in the experiment on NCI/ADR-RES, with T47D, in the experiment with COLO 205 and with SK-MEL-2 was > 100 µM (inactive) throughout. Besides, the GI50 in the experiment on U-251 was > 100 µM (inactive).

In the case of `COC(=O)C(NC(=O)C12CCC(C)(C(=O)O1)C2(C)C)c1cc(C(C)(C)C)c(O)c(C(C)(C)C)c1` (stereo not drawn), the GI50 in the experiment with TK-10 was 57.7 µM (inactive); with SK-MEL-28 it was > 100 µM (inactive); in the experiment with OVCAR-5, > 100 µM (inactive); with DU-145, > 100 µM (inactive); with Hs-578T it was 94 µM (inactive); in the experiment with EKVX, > 100 µM (inactive). In addition, the GI50 in the experiment with NCI-H23 was > 100 µM (inactive); with UACC-62 it was > 100 µM (inactive); in the experiment with SK-OV-3, > 100 µM (inactive); in the experiment on SF-295, > 100 µM (inactive); in the experiment with K562 it was 64 µM (inactive); in the experiment with HCT-116, 64.3 µM (inactive). Moreover, the GI50 with Malme-3M was > 100 µM (inactive); with PC-3 it was 67 µM (inactive); in the experiment with NCI/ADR-RES it was > 100 µM (inactive); in the experiment on T47D, 81.7 µM (inactive); in the experiment with COLO 205, 49.4 µM (inactive); in the experiment on SK-MEL-2 it was > 100 µM (inactive). In addition, the GI50 in the experiment on U-251 is 73.1 µM (inactive).

For the compound `CC(C)CC(=O)NC(NC(C)C)(C(F)(F)F)C(F)(F)F`, the GI50 with TK-10, in the experiment with SK-MEL-28, with DU-145, with Hs-578T, in the experiment with EKVX and with UACC-257 was > 100 µM (inactive) in each case. The GI50 with UACC-62, with K562, in the experiment with HCT-116, in the experiment on Malme-3M, in the experiment on PC-3 and in the experiment with NCI/ADR-RES was > 100 µM (inactive) each time. The GI50 in the experiment with T47D, in the experiment with COLO 205, in the experiment on SK-MEL-2 and with U-251 was > 100 µM (inactive) in each case.

Take `C=C1C(=O)O[C@H]2[C@@H](O)[C@H](C)CCC[C@]3(C)O[C@H]3CC[C@@]3(C)O[C@@H]3C[C@@H]12`: the GI50 in the experiment with SK-MEL-28 is 2.83 µM (inactive); with OVCAR-5, 6.22 µM (inactive); with DU-145, 6.52 µM (inactive); in the experiment on Hs-578T it was 7.59 µM (inactive); in the experiment with EKVX, 4.06 µM (inactive); with NCI-H23 it was 6.49 µM (inactive). The GI50 is 2.3 µM (inactive) in the experiment on UACC-62; 10.1 µM (inactive) in the experiment on SK-OV-3; 8.55 µM (inactive) in the experiment on SF-295; 1.14 µM (inactive) in the experiment on K562; 1.75 µM (inactive) in the experiment on HCT-116; 7.43 µM (inactive) in the experiment with PC-3. Also, the GI50 with NCI/ADR-RES is 7.73 µM (inactive); in the experiment with T47D it was 7.66 µM (inactive); with COLO 205, 3.01 µM (inactive); in the experiment on SK-MEL-2, 9.2 µM (inactive); in the experiment with U-251 it was 8.57 µM (inactive).

For `O=S(=O)(O)c1ccc(/N=N/c2ccccc2)cc1`, the GI50 in the experiment with TK-10, with SK-MEL-28, in the experiment on OVCAR-5, with DU-145, in the experiment on Hs-578T and in the experiment with EKVX was > 100 µM (inactive) in each case. In addition, the GI50 with NCI-H23, in the experiment with UACC-257, in the experiment with UACC-62, in the experiment on SK-OV-3, in the experiment with SF-295 and in the experiment on K562 was > 100 µM (inactive) throughout. Besides, the GI50 in the experiment with HCT-116, with PC-3, in the experiment on NCI/ADR-RES, with T47D, in the experiment on COLO 205 and in the experiment with SK-MEL-2 was > 100 µM (inactive) each time. Further, the GI50 in the experiment with U-251 was > 100 µM (inactive).

Regarding `C=C(Br)COc1ccc2c(C)cc(=O)oc2c1`, the GI50 is 45.9 µM (inactive) in the experiment with TK-10; > 100 µM (inactive) in the experiment on SK-MEL-28; > 100 µM (inactive) in the experiment with OVCAR-5; > 100 µM (inactive) with DU-145; 90.6 µM (inactive) in the experiment with Hs-578T; 43.3 µM (inactive) in the experiment on EKVX. The GI50 was 90.4 µM (inactive) in the experiment on NCI-H23; 73.5 µM (inactive) in the experiment with UACC-257; 49 µM (inactive) with K562; 59.3 µM (inactive) with HCT-116; > 100 µM (inactive) with Malme-3M; > 100 µM (inactive) in the experiment on PC-3. The GI50 with NCI/ADR-RES is 47.4 µM (inactive); with T47D it was 20.2 µM (inactive); in the experiment with COLO 205, 1.99 µM (inactive); with SK-MEL-2 it was > 100 µM (inactive); in the experiment on U-251 it was 65.3 µM (inactive).

For the origin of these results see ChEMBL document CHEMBL1201862, “PubChem BioAssay data set” (2004).
